# According to ChEMBL document CHEMBL1148663, “High-throughput screening for Hsp90 ATPase inhibitors” (Bioorg Med Chem Lett, 2006):
# Target: Heat shock protein HSP90 (Homo sapiens, UniProt P07900+P08238)
# Experiment: Inhibition of Hsp90 by recombinant ATPase assay
# Format: functional
# Conditions: not given; call rule not given here
row,IC50 [µM],Compound
1,4.1,O=C1CC(=O)N(c2cccc(Cl)c2)N1
2,5.4,COc1cc(C2CC(c3ccccc3O)=NN2)ccc1O (stereo not given)
3,2.3,Cc1cc(O)nc(SCC(=O)c2ccc(O)c(O)c2)n1
4,3.2,O=c1c(Oc2ccc(F)cc2)coc2c(O)c(O)ccc12
5,2.5,COc1cccc(C(=O)Nc2ccc(O)c(C)c2)c1
6,2,O=S(=O)(Nc1ccc(Cl)cc1O)c1ccccc1
7,3,COc1ccc(O)c(-c2c[nH]nc2-c2cccs2)c1
8,7,Cc1nc(N)sc1-c1csc(Nc2ccccn2)n1
9,1.9,O=C1CC(Nc2ccc(N3CCOCC3)cc2)C(=O)N1Cc1ccccc1 (stereo not given)
10,2.7,CC1(C)CC2=Nc3ccccc3NC(c3cccc(O)c3O)C2=C(O)C1 (stereo not given)

# Tested on: SK-BR-3
# Experiment: Antiproliferative activity against human SKBr3 cells
# Format: functional, cell-based
# Conditions: Homo sapiens, SK-BR-3; read-out: IC50
row,IC50 [µM],Compound
1,48,COc1cc(C2CC(c3ccccc3O)=NN2)ccc1O (stereo not given)
2,75,O=S(=O)(Nc1ccc(Cl)cc1O)c1ccccc1
3,66,CC1(C)CC2=Nc3ccccc3NC(c3cccc(O)c3O)C2=C(O)C1 (stereo not given)

# Same assay, conditions: sk-br-3
row,IC50,Compound
1,Not Active,O=C1CC(=O)N(c2cccc(Cl)c2)N1
2,Not Active,Cc1cc(O)nc(SCC(=O)c2ccc(O)c(O)c2)n1
3,Not Active,O=c1c(Oc2ccc(F)cc2)coc2c(O)c(O)ccc12
4,Not Active,COc1cccc(C(=O)Nc2ccc(O)c(C)c2)c1
5,Not Active,COc1ccc(O)c(-c2c[nH]nc2-c2cccs2)c1
6,Not Active,Cc1nc(N)sc1-c1csc(Nc2ccccn2)n1
7,Not Active,O=C1CC(Nc2ccc(N3CCOCC3)cc2)C(=O)N1Cc1ccccc1 (stereo not given)
